Assay results reported in US20140100184A1, “SELECTIVE INHIBITORS OF HISTONE […] DOT1L” (BAYLOR COLLEGE OF MEDICINE, priority 2012, published 2014).
Counter-ions that a name gives are not always drawn. Like-named read-outs stand apart in the source and are kept apart here.

Experiments:
[1] = biological target: T1, G9a (Mus musculus, UniProt Q9Z148); experiment: Methyltransferase inhibition assay, G9a
T1 sequence (Q9Z148 1-1263): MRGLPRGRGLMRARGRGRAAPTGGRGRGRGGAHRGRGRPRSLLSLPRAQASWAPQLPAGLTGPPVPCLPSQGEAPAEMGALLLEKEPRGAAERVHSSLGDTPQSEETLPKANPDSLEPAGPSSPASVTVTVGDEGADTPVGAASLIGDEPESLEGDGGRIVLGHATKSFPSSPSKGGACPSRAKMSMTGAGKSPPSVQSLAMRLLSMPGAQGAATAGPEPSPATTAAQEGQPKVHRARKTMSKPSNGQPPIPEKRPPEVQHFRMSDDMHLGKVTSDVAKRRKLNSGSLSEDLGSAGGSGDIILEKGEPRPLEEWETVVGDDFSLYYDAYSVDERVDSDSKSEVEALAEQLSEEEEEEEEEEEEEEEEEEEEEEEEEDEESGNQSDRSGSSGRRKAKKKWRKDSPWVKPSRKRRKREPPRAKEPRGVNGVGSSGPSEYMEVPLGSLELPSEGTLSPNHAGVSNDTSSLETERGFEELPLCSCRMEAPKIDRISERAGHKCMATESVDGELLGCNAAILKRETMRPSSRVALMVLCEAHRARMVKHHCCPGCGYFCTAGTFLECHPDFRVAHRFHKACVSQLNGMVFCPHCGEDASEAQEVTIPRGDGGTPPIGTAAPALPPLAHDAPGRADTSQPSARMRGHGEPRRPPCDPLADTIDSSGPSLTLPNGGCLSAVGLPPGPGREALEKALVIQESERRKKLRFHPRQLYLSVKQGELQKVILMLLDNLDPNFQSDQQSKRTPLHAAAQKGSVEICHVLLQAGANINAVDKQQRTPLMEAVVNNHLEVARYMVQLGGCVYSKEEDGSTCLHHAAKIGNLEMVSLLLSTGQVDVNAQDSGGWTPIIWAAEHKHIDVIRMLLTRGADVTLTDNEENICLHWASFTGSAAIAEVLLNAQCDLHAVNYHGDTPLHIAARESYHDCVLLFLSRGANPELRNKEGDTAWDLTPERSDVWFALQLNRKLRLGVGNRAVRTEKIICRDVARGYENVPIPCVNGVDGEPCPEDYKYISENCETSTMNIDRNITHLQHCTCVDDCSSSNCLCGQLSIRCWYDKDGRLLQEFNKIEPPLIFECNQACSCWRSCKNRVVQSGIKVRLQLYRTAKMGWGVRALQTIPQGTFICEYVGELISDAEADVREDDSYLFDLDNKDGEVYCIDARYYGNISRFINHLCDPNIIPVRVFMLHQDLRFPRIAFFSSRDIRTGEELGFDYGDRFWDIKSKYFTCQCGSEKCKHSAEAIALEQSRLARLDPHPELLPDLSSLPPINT

[2] = biological target: T2, SUV39H1 (Homo sapiens, UniProt O43463); experiment: biochemical; set-up: purchased BPS Biosciences (San Diego, Calif.)
T2 sequence (O43463 1-412): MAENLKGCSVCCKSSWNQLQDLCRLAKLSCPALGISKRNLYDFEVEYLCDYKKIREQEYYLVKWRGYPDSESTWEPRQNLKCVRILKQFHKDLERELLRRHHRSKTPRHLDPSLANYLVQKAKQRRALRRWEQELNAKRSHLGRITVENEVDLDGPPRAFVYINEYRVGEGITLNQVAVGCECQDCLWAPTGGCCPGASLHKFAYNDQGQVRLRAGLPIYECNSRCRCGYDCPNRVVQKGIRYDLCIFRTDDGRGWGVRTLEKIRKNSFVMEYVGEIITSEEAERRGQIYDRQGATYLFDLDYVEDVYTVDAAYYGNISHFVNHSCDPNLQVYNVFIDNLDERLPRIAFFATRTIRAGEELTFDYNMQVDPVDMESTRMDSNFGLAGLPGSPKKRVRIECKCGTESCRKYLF

[3] = biological target: T3, CARM1 (Homo sapiens, UniProt Q86X55); experiment: biochemical; set-up: GST (from pGEX-KG vector) (N); made in house; host or cells: E. coli (as for hDOT1L); plasmid pGEX-KG-CARM1 from Dr. Qin Feng
T3 sequence (Q86X55 1-608): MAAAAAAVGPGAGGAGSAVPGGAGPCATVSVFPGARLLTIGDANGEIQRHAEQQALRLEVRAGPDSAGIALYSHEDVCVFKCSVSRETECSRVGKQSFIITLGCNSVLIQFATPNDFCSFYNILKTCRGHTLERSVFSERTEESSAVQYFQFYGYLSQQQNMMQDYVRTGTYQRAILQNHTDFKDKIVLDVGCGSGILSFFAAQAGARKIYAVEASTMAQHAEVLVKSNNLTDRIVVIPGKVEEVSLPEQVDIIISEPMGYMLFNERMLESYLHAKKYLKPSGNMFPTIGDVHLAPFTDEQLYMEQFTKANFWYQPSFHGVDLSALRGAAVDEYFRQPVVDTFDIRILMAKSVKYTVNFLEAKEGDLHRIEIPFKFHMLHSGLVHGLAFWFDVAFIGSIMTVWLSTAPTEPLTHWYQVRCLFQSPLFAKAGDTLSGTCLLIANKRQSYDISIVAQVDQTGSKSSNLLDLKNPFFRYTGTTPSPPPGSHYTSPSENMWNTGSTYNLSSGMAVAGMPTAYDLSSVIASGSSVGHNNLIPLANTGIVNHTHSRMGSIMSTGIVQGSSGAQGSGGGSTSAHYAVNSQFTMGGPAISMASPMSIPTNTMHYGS

[4] = tested on: CARM1, PRMT1, G9a and SUV39H1; experiment: Inhibition of other methyltransferases, summarised over the panel; settings: for activity against other methyltransferases: in words
[5] = biological target: T4, PRMT1 (Homo sapiens, UniProt Q99873); experiment: Methyltransferase inhibition assay, PRMT1; format: biochemical; set-up: purchased BPS Biosciences (San Diego, Calif.)
[6] = biological target: T5, DOT1L (Homo sapiens, UniProt Q8TEK3); experiment: Determination of Km values of SAM and substrate, DOT1L; format: biochemical; settings: 30° C., 10 min, pH=8.0
T5 construct: Human DOT1 L(1-472) was expressed and purified as described in the literature; GST (N, cleaved yes); made in house; host or cells: E. coli BL21-CodonPlus (Agilent), plasmid pGEX-KG-hDOT1L(1-472)

[7] = biological target: T3, CARM1; settings: read-out: Km value of SAM for CARM1
[8] = biological target: T1, G9a; settings: read-out: Km value of SAM for G9a
[9] = biological target: T2, SUV39H1; settings: read-out: Km value of SAM for SUV39H1
[10] = biological target: T5, DOT1L; settings: literature values; read-out: Km value for DOT1L, recent publication; cited from earlier work
[11] = biological target: T4, PRMT1; settings: read-out: Km value of SAM for PRMT1; from the literature; cited from earlier work

T5 sequence (Q8TEK3 1-472): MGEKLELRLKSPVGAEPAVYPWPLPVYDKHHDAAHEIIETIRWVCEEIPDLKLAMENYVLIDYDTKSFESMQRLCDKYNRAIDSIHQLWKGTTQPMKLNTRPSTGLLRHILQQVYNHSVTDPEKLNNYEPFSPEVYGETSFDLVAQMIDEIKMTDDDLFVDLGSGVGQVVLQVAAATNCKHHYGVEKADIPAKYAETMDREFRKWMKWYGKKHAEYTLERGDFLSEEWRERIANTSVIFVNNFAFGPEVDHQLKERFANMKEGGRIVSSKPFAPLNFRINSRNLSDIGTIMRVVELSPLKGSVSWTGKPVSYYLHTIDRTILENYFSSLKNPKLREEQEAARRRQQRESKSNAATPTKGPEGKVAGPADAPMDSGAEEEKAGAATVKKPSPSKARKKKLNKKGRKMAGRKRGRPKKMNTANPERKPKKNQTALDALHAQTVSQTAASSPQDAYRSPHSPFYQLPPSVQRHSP
T4 sequence (Q99873 whole entry): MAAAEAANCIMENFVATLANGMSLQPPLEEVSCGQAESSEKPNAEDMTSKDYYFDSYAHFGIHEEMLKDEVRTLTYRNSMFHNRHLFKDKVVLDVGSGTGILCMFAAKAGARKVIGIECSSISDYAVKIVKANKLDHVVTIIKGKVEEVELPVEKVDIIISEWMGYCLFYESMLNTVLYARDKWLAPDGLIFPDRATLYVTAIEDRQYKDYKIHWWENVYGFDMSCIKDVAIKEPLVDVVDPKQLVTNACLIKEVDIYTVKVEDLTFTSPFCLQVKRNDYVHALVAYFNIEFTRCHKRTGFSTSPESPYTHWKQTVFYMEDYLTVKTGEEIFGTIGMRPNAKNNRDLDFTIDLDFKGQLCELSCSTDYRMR

CNc1ncnc2c1ncn2[C@@H]1O[C@H](CSCC[C@H](N)C(=O)O)[C@@H](O)[C@H]1O [Compound 1, S-(N^6-Methyl-adenosyl)-L-homocysteine]
Ki [1]: > 100 µM

N[C@@H](CCSC[C@H]1O[C@@H](n2cnc3c(NCc4ccccc4)ncnc32)[C@H](O)[C@@H]1O)C(=O)O [Compound 2, S-(N^6-Benzyl-adenosyl)-L-homocysteine]
Ki [1]: > 100 µM | activity on G9a [1]: inactive | Ki [2]: > 100 µM | Ki [3]: 18 µM

Nc1ncnc2c1ncn2[C@@H]1O[C@H](CN(CCI)CC[C@H](N)C(=O)O)C(O)[C@@H]1O (stereo partly drawn) [Compound 3, N^γ-(5′-Adenosyl)-N^γ-(2-iodoethyl)-(S)-2,4-diaminobutyric acid hydrochloride]
IC50 [1]: > 100 µM | IC50 [2]: > 100 µM | IC50 [3]: 46.4 µM

Nc1ncnc2c1ncn2[C@@H]1O[C@H](CN(CCI)CCC[C@H](N)C(=O)O)C(O)[C@@H]1O (stereo partly drawn) [Compound 4, N^δ-(5′-Adenosyl)-N^δ-(2-iodoethyl)-(S)-2,5-diaminopentanoic-acid hydrochloride]
IC50 [1]: 1.8 µM | IC50 [2]: > 100 µM | IC50 ([4]; read-out: IC50 values on other methyltransferases, span over the four enzymes): ≥ 1.1 µM | IC50 [3]: 1.1 µM

CNc1ncnc2c1ncn2[C@@H]1O[C@H](CN(CCI)CCC[C@H](N)C(=O)O)C(O)[C@@H]1O (stereo partly drawn) [Compound 5, N^δ-[5′-(N^6-Methyl-adenosyl)]-N^δ-(2-iodoethyl)-(S)-2,5-diaminopentanoic acid hydrochloride]
IC50 [1]: > 100 µM | IC50 [2]: > 100 µM | activity against other methyltransferases [4]: essentially inactive | IC50 [3]: > 100 µM

N[C@@H](CCCN(CCI)C[C@H]1O[C@@H](n2cnc3c(NCc4ccccc4)ncnc32)[C@@H](O)C1O)C(=O)O (stereo partly drawn) [Compound 6, N^δ-[5′-(N^6-Benzyl-adenosyl)]-N^δ-(2-iodoethyl)-(S)-2,5-diaminopentanoic acid hydrochloride]
IC50 [1]: > 100 µM | IC50 [5]: > 100 µM | IC50 [2]: > 100 µM | activity against other methyltransferases [4]: essentially inactive | IC50 [3]: > 100 µM

Nc1ncnc2c1ncn2[C@@H]1O[C@H](CSCC[C@H](N)C(=O)O)[C@@H](O)[C@H]1O [SAH, S-(5′-adenosyl)-L-homocysteine, reference compound]
Ki [1]: 0.57 µM

C[S+](CC[C@H](N)C(=O)O)C[C@H]1O[C@@H](n2cnc3c(N)ncnc32)[C@H](O)[C@@H]1O (stereo partly drawn) [SAM, S-(5′-adenosyl)-L-methionine]
Km [6]: 0.76 µM | Km [7]: 1.6 µM | Km [8]: 14.1 µM | Km [9]: 27.9 µM | Km [10]: 0.65 µM | Km [11]: 6 µM
